Reference: US9382204B2, “Inhibitors targeting the DNA-binding domain of human STAT3 for treatment of metastatic cancers” (Indiana University Research and Technology Corporation, priority 2013, dated 2016)

Test system: STAT3
Assay: STAT3-dependent luciferase reporter assay in MDA-MB-231-STAT3 stable cells
Format: cell-based, human
Details: 20 μM; for Rel. luciferase activity (%) 1: experiment 1, relative to DMSO; for Rel. luciferase activity (%) 2: experiment 2, relative to DMSO; for Rel. luciferase activity (%) 3: experiment 3, relative to DMSO; for Rel. luciferase activity (%) Mean: mean of experiments, relative to DMSO; for inhibition of luciferase expression compared to DMSO vehicle control: significant = p value less than 0.05
Description: FIG. 12. Identification of active inS3-54 analogues. (A) Effects of inS3-54 analogues on STAT3-dependent luciferase expression. MDA-MB-231 cells with stable STAT3-dependent luciferase expression were treated with DMSO control, 20 μM inSTAT3-54 or its analogues (A1-A79), followed by measurement of luciferase activity. (*p<0.05; **p<0.01; ***p<0.001).
MDA-MB-231-STAT3 stable cell line with high level of STAT3-dependent luciferase expression was exposed to candidate compounds at 20 μM in DMSO for 48 hours based on previous studies, and luciferase activity was measured using a luciferase assay kit (Promega, USA), following manufacturer's instructions. The final DMSO concentration in this and following assays was 0.1% (vol/vol).

Row | SMILES | Rel. luciferase activity (%) 1 | Rel. luciferase activity (%) 2 | Rel. luciferase activity (%) 3 | Rel. luciferase activity (%) Mean | inhibition of luciferase expression compared to DMSO vehicle control
1 | O=C(O)c1cccc(N2C(=O)C(=Cc3ccc(-c4cc(Cl)ccc4Cl)o3)C=C2c2ccccc2)c1 [Compound A2] | 120.3% | 107.5% | 114.1% | 114.0% | –
2 | Cc1ccc(N2C(=O)C(=Cc3ccc(-c4cc(Cl)ccc4Cl)o3)C=C2c2ccccc2)cc1[N+](=O)[O-] [Compound A3] | 116.7% | 104.0% | 101.3% | 107.3% | –
3 | Cc1ccc(N2C(=O)C(=Cc3ccc(-c4ccc([N+](=O)[O-])cc4)o3)C=C2c2ccccc2)cc1 [Compound A4] | 117.8% | 108.4% | 103.4% | 109.9% | –
4 | Cc1ccc(N2C(=O)C(=Cc3ccc(-c4ccc([N+](=O)[O-])cc4)o3)C=C2c2ccccc2)cc1C [Compound A5] | 113.5% | 109.3% | 92.2% | 105.0% | –
5 | O=C1C(=Cc2ccc(-c3ccc([N+](=O)[O-])cc3)o2)C=C(c2ccccc2)N1c1ccc(Cl)cc1 [Compound A6] | 110.9% | 112.7% | 71.0% | 98.2% | –
6 | COc1ccc(N2C(=O)C(=Cc3ccc(-c4ccc([N+](=O)[O-])cc4)o3)C=C2c2ccccc2)cc1 [Compound A7] | 99.6% | 109.4% | 72.3% | 93.8% | –
7 | CC(=O)c1cccc(N2C(=O)C(=Cc3ccc(-c4ccc([N+](=O)[O-])cc4)o3)C=C2c2ccccc2)c1 [Compound A8] | 71.9% | 102.6% | 57.5% | 77.3% | –
8 | Cc1ccccc1N1C(=O)C(=Cc2ccc(-c3ccc([N+](=O)[O-])cc3)o2)C=C1c1ccccc1 [Compound A9] | 78.4% | 95.8% | 96.2% | 90.2% | –
9 | O=C1C(=Cc2ccc(-c3ccc([N+](=O)[O-])cc3)o2)C=C(c2ccccc2)N1c1cccc(Cl)c1 [Compound A10] | 87.4% | 110.4% | 103.7% | 100.5% | –
10 | O=C1C(=Cc2ccc(-c3ccc([N+](=O)[O-])cc3)o2)C=C(c2ccccc2)N1c1ccc(F)cc1 [Compound A11] | 73.5% | 101.5% | 91.7% | 88.9% | –
11 | COc1cccc(N2C(=O)C(=Cc3ccc(-c4ccc([N+](=O)[O-])cc4)o3)C=C2c2ccccc2)c1 [Compound A12] | 34.2% | 105.8% | 55.4% | 65.1% | –
12 | O=C1C(=Cc2ccc(-c3ccc([N+](=O)[O-])cc3)o2)C=C(c2ccccc2)N1c1ccccc1Cl [Compound A14] | 140.4% | 129.3% | 72.3% | 114.0% | –
13 | O=C1C(=Cc2ccc(Cl)cc2)C=C(c2ccccc2)N1c1ccccc1 [Compound A15] | 98.4% | 99.9% | 60.1% | 86.1% | –
14 | O=C1C(=Cc2ccc(Cl)cc2)C=C(c2ccccc2)N1c1ccc(Cl)cc1 [Compound A16] | 55.8% | 91.2% | 57.1% | 68.0% | –
15 | COc1ccc(N2C(=O)C(=Cc3ccc(Cl)cc3)C=C2c2ccccc2)cc1 [Compound A17] | 103.2% | 120.5% | 104.2% | 109.3% | –
16 | COC(=O)c1cccc(N2C(=O)C(=Cc3ccc(Cl)cc3)C=C2c2ccccc2)c1 [Compound A19] | 45.7% | 101.8% | 60.1% | 69.2% | –
17 | O=C1C(=Cc2ccc(Cl)cc2)C=C(c2ccccc2)N1c1ccc(-c2ccccc2)cc1 [Compound A20] | 63.2% | 85.1% | 63.8% | 70.7% | significantly inhibited

Row | SMILES | Rel. luciferase activity (%) 1 | Rel. luciferase activity (%) 2 | Rel. luciferase activity (%) 3 | Rel. luciferase activity (%) Mean | inhibition of luciferase expression compared to DMSO vehicle control
18 | CC(C)(C)c1ccc(N2C(=O)C(=Cc3ccc(Cl)cc3)C=C2c2ccccc2)cc1 [Compound A21] | 158.0% | 174.7% | 159.1% | 163.9% | –
19 | O=C1C(=Cc2ccc(Cl)cc2)C=C(c2ccccc2)N1c1ccc(F)cc1 [Compound A22] | 97.9% | 114.0% | 61.1% | 91.0% | –
20 | COC(=O)c1ccc(N2C(=O)C(=Cc3ccc(Cl)cc3)C=C2c2ccccc2)cc1 [Compound A23] | 99.2% | 103.2% | 69.4% | 90.6% | –
21 | Cc1ccc(N2C(=O)C(=Cc3ccc(Cl)cc3)C=C2c2ccccc2)cc1[N+](=O)[O-] [Compound A25] | 74.6% | 124.2% | 87.8% | 95.6% | –
22 | O=C1C(=Cc2ccc(Cl)cc2)C=C(c2ccccc2)N1c1ccccc1Cl [Compound A27] | 48.5% | 83.6% | 74.2% | 68.8% | significantly inhibited
23 | O=C1C(=Cc2ccc(Cl)cc2)C=C(c2ccccc2)N1c1ccc(Nc2ccccc2)cc1 [Compound A28] | 67.2% | 106.0% | 62.1% | 78.4% | –
24 | Cc1ccc(N2C(=O)C(=Cc3ccc([N+](=O)[O-])cc3)C=C2c2ccccc2)cc1C [Compound A29] | 100.7% | 170.4% | 113.3% | 128.1% | –
25 | Cc1ccc(N2C(=O)C(=Cc3ccc([N+](=O)[O-])cc3)C=C2c2ccccc2)cc1C [Compound A30] | 89.6% | 83.9% | 61.2% | 78.2% | –
26 | O=C1C(=Cc2ccc([N+](=O)[O-])cc2)C=C(c2ccccc2)N1c1ccc(Cl)cc1 [Compound A31] | 122.8% | 124.5% | 49.9% | 99.1% | –
27 | COc1ccccc1N1C(=O)C(=Cc2ccc([N+](=O)[O-])cc2)C=C1c1ccccc1 [Compound A32] | 58.2% | 99.2% | 58.6% | 72.0% | –
28 | COc1ccc(N2C(=O)C(=Cc3ccc([N+](=O)[O-])cc3)C=C2c2ccccc2)cc1 [Compound A33] | 33.8% | 92.3% | 99.1% | 75.1% | –
29 | COC(=O)c1cccc(N2C(=O)C(=Cc3ccc([N+](=O)[O-])cc3)C=C2c2ccccc2)c1 [Compound A34] | 61.1% | 103.6% | 80.8% | 81.9% | –
30 | O=C1C(=Cc2ccc([N+](=O)[O-])cc2)C=C(c2ccccc2)N1c1ccc(-c2ccccc2)cc1 [Compound A35] | 51.3% | 109.5% | 112.6% | 91.1% | –
31 | O=C1C(=Cc2ccc([N+](=O)[O-])cc2)C=C(c2ccccc2)N1Cc1ccccc1 [Compound A36] | 46.4% | 87.4% | 66.3% | 66.7% | significantly inhibited
32 | O=C1C(=Cc2ccc([N+](=O)[O-])cc2)C=C(c2ccccc2)N1c1cccc(Cl)c1 [Compound A38] | 66.5% | 119.9% | 88.8% | 91.8% | –
33 | O=C1C(=Cc2ccc([N+](=O)[O-])cc2)C=C(c2ccccc2)N1c1ccc(Cl)c(Cl)c1 [Compound A39] | 119.6% | 129.6% | 65.9% | 105.1% | –
34 | O=C1C(=Cc2ccc([N+](=O)[O-])cc2)C=C(c2ccccc2)N1c1ccc(F)cc1 [Compound A40] | 126.5% | 101.5% | 43.0% | 90.3% | –
